IC50 and Kd data for 34 compounds are collected here from patent publication US20240067639A1, “SMALL MOLECULES THAT TARGET THE RNA THAT CAUSES ALS” (EXPANSION THERAPEUTICS, INC., priority 2020, published 2024).

Experiment [1] concerns RAN translation of (G4C2)66-No ATG-GFP in HEK293T cells. In words: Cell-based assay of RAN translation inhibition (GFP/mCherry reporter). The note with it: Homo sapiens, HEK-293T, read-out: RANT IC50.
Experiment [2] concerns the target Biotin-labeled RNA (target RNA). In words: BLI affinity measurement (ForteBio Octet RED384). The experiment is classed as binding. The note with it: Table G.

Like-named read-outs stand apart in the source and are kept apart here.

The term IC50 denotes the concentration that gives 50% inhibition. For orientation: Kd means the constant that tells how readily two partners part at equilibrium. As for `c1cc2cc3[nH]c4ccc(OCC5=NCCN5)cc4c3cc2cn1` [Compound 262, 9-((4,5-dihydro-1H-imidazol-2-yl)methoxy)-6H-pyrido[4,3-b]carbazole], in experiment [1] (Table G, HEK293T), the IC50 was 6.6 µM. For the same compound, the Kd in experiment [2] stood at 5.2 µM.

Take `Cc1c2ccncc2cc2c3cc(OCCCN4CCCCC4)ccc3n(C)c12` [Compound 266, 5,6-dimethyl-9-(3-(piperidin-1-yl)propoxy)-6H-pyrido[4,3-b]carbazole]: in experiment [1] (Table G, HEK293T), the IC50 was 7.8 µM. Binding in experiment [2] was put at a Kd of 0.69 µM.

`COCC(C)(C)NC(=O)c1ccc2c(c1)c1cc3cnccc3c(C)c1n2C` [Compound 302, N-(1-methoxy-2-methylpropan-2-yl)-5,6-dimethyl-6H-pyrido[4,3-b]carbazole-9-carb-oxamide]: the IC50 in experiment [1] (Table G, HEK293T) is 9.1 µM. The Kd in experiment [2] turned out to be 8.2 µM.

As to `Cc1c2ccnc(C(=O)NCCN)c2cc2c3cc(F)c(F)cc3n(C)c12` [Compound 309, N-(2-aminoethyl)-8,9-difluoro-5,6-dimethyl-6H-pyrido[4,3-b]carbazole-1-carboxamide], in experiment [1] (Table G, HEK293T), the IC50 worked out at 41 µM. The Kd in experiment [2] was 1.4 µM.

Regarding `CC(=O)N[C@@H](C)COc1ccc2c(c1)c1cc3cnccc3c(C)c1n2C` [Compound 272, (S)—N-(1-((5,6-dimethyl-6H-pyrido[4,3-b]carbazol-9-yl)oxy)propan-2-yl)acetamide], in experiment [1] (Table G, HEK293T), the IC50 is 2 µM. For the same compound, binding in experiment [2] was put at a Kd of 7.7 µM.

With `Cc1c2ccnc(C(=O)NCCN(C)C)c2cc2c3cc(F)c(F)cc3n(C)c12` [Compound 313, N-(2-(dimethylamino)ethyl)-8,9-difluoro-5,6-dimethyl-6H-pyrido[4,3-b]carbazole-1-carboxamide], the IC50 in experiment [1] (Table G, HEK293T) was above 100 µM. Further, in experiment [2], the Kd is 4.7 µM.

For the compound `Cc1c2ccncc2cc2c3cc(OC[C@H](C)NC(C)C)ccc3n(C)c12` [Compound 283, (S)-1-((5,6-dimethyl-6H-pyrido[4,3-b]carbazol-9-yl)oxy)-N-isopropylpropan-2-amine], the IC50 in experiment [1] (Table G, HEK293T) came out at 2.4 µM. In experiment [2], this compound registered an equilibrium dissociation constant (Kd) of 0.09 µM.

For `Cc1c2ccncc2cc2c3cc(OCC(N)=O)cc(F)c3n(C)c12` [Compound 264, 2-(7-fluoro-5,6-dimethyl-pyrido[4,3-b]carbazol-9-yl)oxyacetamide], the IC50 in experiment [1] (Table G, HEK293T) was above 100 µM. The Kd in experiment [2] turned out to be 0.18 µM.

With `Cc1c2ccncc2cc2c3cc(C(=O)N[C@@H](C)CN(C)C)ccc3n(C)c12` [Compound 295, N-[(1S)-2-(dimethylamino)-1-methyl-ethyl]-5,6-dimethyl-pyrido[4,3-b]carbazole-9-carboxamide], the IC50 in experiment [1] (Table G, HEK293T) worked out at 41 µM. This compound returned a Kd in experiment [2] of 0.35 µM.

For `Cc1c2ccncc2cc2c3cc(C(=O)NC[C@H](C)N)ccc3n(C)c12` [Compound 280, (S)—N-(2-aminopropyl)-5,6-dimethyl-6H-pyrido[4,3-b]carbazole-9-carboxamide], the IC50 in experiment [1] (Table G, HEK293T) stood at 35 µM. Besides, binding in experiment [2] was put at a Kd of 0.88 µM.

Take `Cc1c2ccncc2cc2c3cc(Oc4ccnc(N)c4)ccc3n(C)c12` [Compound 303, 4-((5,6-dimethyl-6H-pyrido[4,3-b]carbazol-9-yl)oxy)pyridin-2-amine]: the IC50 in experiment [1] (Table G, HEK293T) is above 100 µM. The same compound showed a Kd in experiment [2] of 0.18 µM.

As to `Cc1c2ccncc2cc2c3ccccc3n(CCN(C)C)c12` [Compound 312, N,N-dimethyl-2-(5-methyl-6H-pyrido[4,3-b]carbazol-6-yl)ethanamine], in experiment [1], the IC50 is 7.4 µM. In experiment [2], this compound showed a Kd of 1.3 µM.

As for `Cc1c2ccncc2cc2c3cc(C(=O)N[C@@H](C)CO)ccc3n(C)c12` [Compound 291, N-[(1S)-2-hydroxy-1-methyl-ethyl]-5,6-dimethyl-pyrido[4,3-b]carbazole-9-carboxamide], the IC50 in experiment [1] (Table G, HEK293T) worked out at 1.8 µM. In addition, the affinity in experiment [2], expressed as Kd, was 3.8 µM.

As to `COc1ccc2c(c1)c1cc3cnccc3c(C)c1n2CCN1CCOCC1` [Compound 320, 4-(2-(9-methoxy-5-methyl-6H-pyrido[4,3-b]carbazol-6-yl)ethyl)morpholine], in experiment [1], the IC50 was 1.9 µM. Moreover, in experiment [2], the affinity, expressed as Kd, was 100 µM.

In the case of `Cc1c2ccncc2cc2c3cc(OC[C@H](C)Nc4ccccn4)ccc3n(C)c12` [Compound 269, (S)—N-(1-((5,6-dimethyl-6H-pyrido[4,3-b]carbazol-9-yl)oxy)propan-2-yl)pyridin-2-amine], in experiment [1] (Table G, HEK293T), the IC50 was above 100 µM. The compound further showed a Kd in experiment [2] of 1.4 µM.

For the compound `COC(C)(C)CNC(=O)c1ccc2c(c1)c1cc3cnccc3c(C)c1n2C` [Compound 299, N-(2-methoxy-2-methylpropyl)-5,6-dimethyl-6H-pyrido[4,3-b]carbazole-9-carboxamide], the IC50 in experiment [1] (Table G, HEK293T) worked out at 3.8 µM. For the same compound, the Kd in experiment [2] was determined as 0.24 µM.

In the case of `Cc1c2ccncc2cc2c3cc(OCC[C@@H](C)N)ccc3n(C)c12` [Compound 267, (R)-4-((5,6-dimethyl-6H-pyrido[4,3-b]carbazol-9-yl)oxy)butan-2-amine], the IC50 in experiment [1] (Table G, HEK293T) is above 21 µM. This compound showed an equilibrium dissociation constant (Kd) in experiment [2] of 8 µM.

In the case of `Cc1c2ccncc2cc2c3cc(C(=O)N[C@@H](C)C(N)=O)ccc3n(C)c12` [Compound 297, (S)—N-(1-amino-1-oxopropan-2-yl)-5,6-dimethyl-6H-pyrido[4,3-b]carbazole-9-carboxamide], the IC50 in experiment [1] (Table G, HEK293T) is 2.9 µM. Also, the Kd in experiment [2] is 2.7 µM.

As to `Cc1c2ccncc2cc2c1[nH]c1ccc(OCCN)cc12` [Compound 263, 2-[(5-methyl-6H-pyrido[4,3-b]carbazol-9-yl)oxy]ethanamine], the IC50 in experiment [1] (Table G, HEK293T) was above 100 µM. Moreover, in experiment [2], binding was put at a Kd of 0.61 µM.

Regarding `Cc1c2ccncc2cc2c3cc(C(=O)N[C@H](C)CN)ccc3n(C)c12` [Compound 282, N-[(1R)-2-amino-1-methyl-ethyl]-5,6-dimethyl-pyrido[4,3-b] carbazole-9-carboxamide], in experiment [1] (Table G, HEK293T), the IC50 stood at 0.67 µM. This compound showed a Kd in experiment [2] of 0.14 µM.

Consider `Cc1c2ccnc(C(=O)N[C@H](C)CN(C)C)c2cc2c3cc(F)ccc3n(C)c12` [Compound 310, (R)—N-(1-(dimethylamino)propan-2-yl)-9-fluoro-5,6-dimethyl-6H-pyrido[4,3-b]carbazole-1-carboxamide], for which the IC50 in experiment [1] (Table G, HEK293T) came out at 38 µM. This compound also returned a Kd in experiment [2] of 0.97 µM.

As for `Cc1c2ccncc2cc2c3ccccc3n(CC3=NCCN3)c12` [Compound 317, 6-((4,5-dihydro-1H-imidazol-2-yl)methyl)-5-methyl-6H-pyrido[4,3-b]carbazole], the IC50 in experiment [1] (Table G, HEK293T) stood at 5 µM. The compound also displayed a Kd in experiment [2] of 5 µM.

Turning to `CNCCOc1ccc2c(c1)c1cc3cnccc3c(C)c1n2C` [Compound 321, 2-((5,6-dimethyl-6H-pyrido[4,3-b]carbazol-9-yl)oxy)-N-methylethanamine], the IC50 in experiment [1] (Table G, HEK293T) was determined as 3.5 µM. Further, in experiment [2], the Kd was found to be 0.71 µM.

`CCCN[C@@H](C)COc1ccc2c(c1)c1cc3cnccc3c(C)c1n2C` [Compound 277, (2S)-1-(5,6-dimethylpyrido[4,3-b]carbazol-9-yl)oxy-N-propyl-propan-2-amine]: in experiment [1], the IC50 amounted to 1.5 µM. Moreover, the Kd in experiment [2] turned out to be 0.02 µM.

In the case of `Cc1c2ccnc(C(=O)N[C@H](C)CN(C)C)c2cc2c3cc(OC[C@H](C)N)ccc3n(C)c12` [Compound 271, 9-[(2S)-2-aminopropoxy]-N-[(1R)-2-(dimethylamino)-1-methyl-ethyl]-5,6-dimethyl-pyrido[4,3-b]carbazole-1-carboxamide], the IC50 in experiment [1] (Table G, HEK293T) was above 100 µM. For the same compound, the Kd in experiment [2] worked out at 0.13 µM.

Take `COC[C@H](C)NC(=O)c1ccc2c(c1)c1cc3cnccc3c(C)c1n2C` [Compound 288, (S)—N-(1-methoxypropan-2-yl)-5,6-dimethyl-6H-pyrido[4,3-b]carbazole-9-carboxamide]: in experiment [1] (Table G, HEK293T), the IC50 was determined as 2 µM. Further, the Kd in experiment [2] amounted to 9.6 µM.

For the compound `Cc1c2ccncc2cc2c3cc(C(=O)N[C@@H](C)CN)ccc3n(C)c12` [Compound 281, (S)—N-(1-aminopropan-2-yl)-5,6-dimethyl-6H-pyrido[4,3-b]carbazole-9-carboxamide], in experiment [1] (Table G, HEK293T), the IC50 was 17 µM. The same compound showed a Kd in experiment [2] of 0.46 µM.

With `Cc1c2ccncc2cc2c3cc(C(=O)NC[C@@H](C)O)ccc3n(C)c12` [Compound 285, (R)—N-(2-hydroxypropyl)-5,6-dimethyl-6H-pyrido[4,3-b]carbazole-9-carboxamide], the IC50 in experiment [1] (Table G, HEK293T) came to 0.9 µM. Also, in experiment [2], the Kd worked out at 0.12 µM.

With `Cc1c2ccnc(C(=O)N[C@H](C)CN(C)C)c2cc2c3cc(OCC(N)=O)ccc3n(C)c12` [Compound 270, 9-(2-amino-2-oxo-ethoxy)-N-[(1R)-2-(dimethylamino)-1-methyl-ethyl]-5,6-dimethyl-pyrido[4,3-b]carbazole-1-carboxamide], the IC50 in experiment [1] (Table G, HEK293T) is 0.36 µM. In addition, in experiment [2], binding was put at a Kd of 0.51 µM.

With `Cc1c2ccncc2cc2c3cc(Oc4ccncc4)ccc3n(C)c12` [Compound 306, 5,6-dimethyl-9-(pyridin-4-yloxy)-6H-pyrido[4,3-b]carbazole], in experiment [1] (Table G, HEK293T), the IC50 worked out at 14 µM. In addition, the Kd in experiment [2] turned out to be 1.2 µM.

On to `Cc1c2ccncc2cc2c3cc(OC[C@H](C)NCC(F)F)ccc3n(C)c12` [Compound 279, (2S)—N-(2,2-difluoroethyl)-1-(5,6-dimethylpyrido[4,3-b]carbazol-9-yl)oxy-propan-2-amine], for which, in experiment [1] (Table G, HEK293T), the IC50 was 2.4 µM. In addition, binding in experiment [2] was put at a Kd of 0.25 µM.

With `Cc1c2ccncc2cc2c3cc(OC[C@H]4CCCN4)cc(F)c3n(C)c12` [Compound 265, (R)-7-fluoro-5,6-dimethyl-9-(pyrrolidin-2-ylmethoxy)-6H-pyrido[4,3-b]carbazole], the IC50 in experiment [1] (Table G, HEK293T) is above 100 µM. The Kd in experiment [2] worked out at 0.72 µM.

Take `Cc1c2ccncc2cc2c3cc(Oc4cccnc4)ccc3n(C)c12` [Compound 311, 5,6-dimethyl-9-(pyridin-3-yloxy)-6H-pyrido[4,3-b]carbazole]: the IC50 in experiment [1] is 20 µM. In addition, in experiment [2], the Kd worked out at 2.3 µM.

As for `Cc1c2ccncc2cc2c3cc(C(=O)NC[C@H](C)N(C)C)ccc3n(C)c12` [Compound 300, (S)—N-(2-(dimethylamino)propyl)-5,6-dimethyl-6H-pyrido[4,3-b]carbazole-9-carboxamide], in experiment [1] (Table G, HEK293T), the 50% inhibitory concentration (IC50) stood at 8.6 µM. Also, in experiment [2], the Kd is 0.35 µM.
